Test results: publication PMC11921695 (BMC Cancer, 2025)

Test system: patients with HIV-associated KS

SMILES: Cn1cnc2c(F)c(Nc3ccc(Br)cc3Cl)c(C(=O)NOCCO)cc21 [selumetinib, 6-(4-Bromo-2-chloro-phenylamino)-7-fluro-3-methyl-3 H-benzoimidazole-5-carboxylic acid (2-hydroxy-ethoxy)-amide hydrogen sulphate]
- Blood and lymphatic system disorders: Adverse Events Grade3 N (N = patients, any dose): 0
- Blood and lymphatic system disorders: Adverse Reactions Grade 1 N (N = patients, any dose): 3
- Blood and lymphatic system disorders: Adverse Reactions Grade 2 N (N = patients, any dose): 1
- Blood and lymphatic system disorders: Adverse Reactions Grade 3 N (N = patients, any dose): 0
- Cardiac disorders: Adverse Events Grade 1 N (N = patients, any dose): 1
- Cardiac disorders: Adverse Events Grade 2 N (N = patients, any dose): 0
- Cardiac disorders: Adverse Events Grade3 N (N = patients, any dose): 0
- Cardiac disorders: Adverse Reactions Grade 1 N (N = patients, any dose): 0
- Cardiac disorders: Adverse Reactions Grade 2 N (N = patients, any dose): 0
- Cardiac disorders: Adverse Reactions Grade 3 N (N = patients, any dose): 0
- Eye disorders: Adverse Events Grade 1 N (N = patients, any dose): 6
- Eye disorders: Adverse Events Grade 2 N (N = patients, any dose): 3
- Eye disorders: Adverse Events Grade3 N (N = patients, any dose): 0
- Eye disorders: Adverse Reactions Grade 1 N (N = patients, any dose): 5
- Eye disorders: Adverse Reactions Grade 2 N (N = patients, any dose): 3
- Eye disorders: Adverse Reactions Grade 3 N (N = patients, any dose): 0
- Gastrointestinal disorders: Adverse Events Grade 1 N (N = patients, any dose): 12
- Gastrointestinal disorders: Adverse Events Grade 2 N (N = patients, any dose): 7
- Gastrointestinal disorders: Adverse Events Grade3 N (N = patients, any dose): 0
- Gastrointestinal disorders: Adverse Reactions Grade 1 N (N = patients, any dose): 12
- Gastrointestinal disorders: Adverse Reactions Grade 2 N (N = patients, any dose): 6
- Gastrointestinal disorders: Adverse Reactions Grade 3 N (N = patients, any dose): 0
- General disorders and administration site conditions: Adverse Events Grade 1 N (N = patients, any dose): 11
- General disorders and administration site conditions: Adverse Events Grade 2 N (N = patients, any dose): 5
- General disorders and administration site conditions: Adverse Events Grade3 N (N = patients, any dose): 1
- General disorders and administration site conditions: Adverse Reactions Grade 1 N (N = patients, any dose): 10
- General disorders and administration site conditions: Adverse Reactions Grade 2 N (N = patients, any dose): 2
- General disorders and administration site conditions: Adverse Reactions Grade 3 N (N = patients, any dose): 0
- Infections and infestations: Adverse Events Grade 1 N (N = patients, any dose): 2
- Infections and infestations: Adverse Events Grade 2 N (N = patients, any dose): 4
- Infections and infestations: Adverse Events Grade3 N (N = patients, any dose): 0
- Infections and infestations: Adverse Reactions Grade 1 N (N = patients, any dose): 1
- Infections and infestations: Adverse Reactions Grade 2 N (N = patients, any dose): 3
- Infections and infestations: Adverse Reactions Grade 3 N (N = patients, any dose): 0
- Injury, poisoning and procedural complications: Adverse Events Grade 1 N (N = patients, any dose): 2
- Injury, poisoning and procedural complications: Adverse Events Grade 2 N (N = patients, any dose): 1
- Injury, poisoning and procedural complications: Adverse Events Grade3 N (N = patients, any dose): 0
- Injury, poisoning and procedural complications: Adverse Reactions Grade 1 N (N = patients, any dose): 0
- Injury, poisoning and procedural complications: Adverse Reactions Grade 2 N (N = patients, any dose): 0
- Injury, poisoning and procedural complications: Adverse Reactions Grade 3 N (N = patients, any dose): 0
- Investigations: Adverse Events Grade 1 N (N = patients, any dose): 15
- Investigations: Adverse Events Grade 2 N (N = patients, any dose): 4
- Investigations: Adverse Events Grade3 N (N = patients, any dose): 2
- Investigations: Adverse Reactions Grade 1 N (N = patients, any dose): 14
- Investigations: Adverse Reactions Grade 2 N (N = patients, any dose): 3
- Investigations: Adverse Reactions Grade 3 N (N = patients, any dose): 0
- Metabolism and nutrition disorders: Adverse Events Grade 1 N (N = patients, any dose): 5
- Metabolism and nutrition disorders: Adverse Events Grade 2 N (N = patients, any dose): 0
- Metabolism and nutrition disorders: Adverse Events Grade3 N (N = patients, any dose): 0
- Metabolism and nutrition disorders: Adverse Reactions Grade 1 N (N = patients, any dose): 5
- Metabolism and nutrition disorders: Adverse Reactions Grade 2 N (N = patients, any dose): 0
- Metabolism and nutrition disorders: Adverse Reactions Grade 3 N (N = patients, any dose): 0
- Musculoskeletal and connective tissue disorders: Adverse Events Grade 1 N (N = patients, any dose): 4
- Musculoskeletal and connective tissue disorders: Adverse Events Grade 2 N (N = patients, any dose): 0
- Musculoskeletal and connective tissue disorders: Adverse Events Grade3 N (N = patients, any dose): 0
- Musculoskeletal and connective tissue disorders: Adverse Reactions Grade 1 N (N = patients, any dose): 2
- Musculoskeletal and connective tissue disorders: Adverse Reactions Grade 2 N (N = patients, any dose): 0
- Musculoskeletal and connective tissue disorders: Adverse Reactions Grade 3 N (N = patients, any dose): 0
- Nervous system disorders: Adverse Events Grade 1 N (N = patients, any dose): 4
- Nervous system disorders: Adverse Events Grade 2 N (N = patients, any dose): 0
- Nervous system disorders: Adverse Events Grade3 N (N = patients, any dose): 0
- Nervous system disorders: Adverse Reactions Grade 1 N (N = patients, any dose): 4
- Nervous system disorders: Adverse Reactions Grade 2 N (N = patients, any dose): 0
- Nervous system disorders: Adverse Reactions Grade 3 N (N = patients, any dose): 0
- Psychiatric disorders: Adverse Events Grade 1 N (N = patients, any dose): 3
- Psychiatric disorders: Adverse Events Grade 2 N (N = patients, any dose): 0
- Psychiatric disorders: Adverse Events Grade3 N (N = patients, any dose): 0
- Psychiatric disorders: Adverse Reactions Grade 1 N (N = patients, any dose): 3
- Psychiatric disorders: Adverse Reactions Grade 2 N (N = patients, any dose): 0
- Psychiatric disorders: Adverse Reactions Grade 3 N (N = patients, any dose): 0
- Renal and urinary disorders: Adverse Events Grade 1 N (N = patients, any dose): 2
- Renal and urinary disorders: Adverse Events Grade 2 N (N = patients, any dose): 0
- Renal and urinary disorders: Adverse Events Grade3 N (N = patients, any dose): 0
- Renal and urinary disorders: Adverse Reactions Grade 1 N (N = patients, any dose): 1
- Renal and urinary disorders: Adverse Reactions Grade 2 N (N = patients, any dose): 0
- Renal and urinary disorders: Adverse Reactions Grade 3 N (N = patients, any dose): 0
- Respiratory, thoracic and mediastinal disorders: Adverse Events Grade 1 N (N = patients, any dose): 4
- Respiratory, thoracic and mediastinal disorders: Adverse Events Grade 2 N (N = patients, any dose): 1
- Respiratory, thoracic and mediastinal disorders: Adverse Events Grade3 N (N = patients, any dose): 0
- Respiratory, thoracic and mediastinal disorders: Adverse Reactions Grade 1 N (N = patients, any dose): 4
- Respiratory, thoracic and mediastinal disorders: Adverse Reactions Grade 2 N (N = patients, any dose): 1
- Respiratory, thoracic and mediastinal disorders: Adverse Reactions Grade 3 N (N = patients, any dose): 0
- Skin and subcutaneous tissue disorders: Adverse Events Grade 1 N (N = patients, any dose): 10
- Skin and subcutaneous tissue disorders: Adverse Events Grade 2 N (N = patients, any dose): 9
- Skin and subcutaneous tissue disorders: Adverse Events Grade3 N (N = patients, any dose): 3
- Skin and subcutaneous tissue disorders: Adverse Reactions Grade 1 N (N = patients, any dose): 10
- Skin and subcutaneous tissue disorders: Adverse Reactions Grade 2 N (N = patients, any dose): 9
- Skin and subcutaneous tissue disorders: Adverse Reactions Grade 3 N (N = patients, any dose): 3
- Vascular disorders: Adverse Events Grade 1 N (N = patients, any dose): 2
- Vascular disorders: Adverse Events Grade 2 N (N = patients, any dose): 0
- Vascular disorders: Adverse Events Grade3 N (N = patients, any dose): 0
- Vascular disorders: Adverse Reactions Grade 1 N (N = patients, any dose): 0
- Vascular disorders: Adverse Reactions Grade 2 N (N = patients, any dose): 0
- Vascular disorders: Adverse Reactions Grade 3 N (N = patients, any dose): 0
- further AEs reported (human, in vivo): 366
- ALT Increased: Number of patients experiencing at least one grade <2AE (n (%) of 16 patients): 5 (31%)
- AST Increased: Number of patients experiencing at least one grade <2AE (n (%) of 16 patients): 7 (44%)
- Albumin Decreased: Number of patients experiencing at least one grade <2AE (n (%) of 16 patients): 3 (19%)
- CPK Increased: Number of patients experiencing at least one grade <2AE (n (%) of 16 patients): 9 (56%)
- Fatigue: Number of patients experiencing at least one grade <2AE (n (%) of 16 patients): 9 (56%)
- Nausea: Number of patients experiencing at least one grade <2AE (n (%) of 16 patients): 7 (44%)
- Red Blood Cell Count Decreased: Number of patients experiencing at least one grade <2AE (n (%) of 16 patients): 7 (44%)
- Vomiting: Number of patients experiencing at least one grade <2AE (n (%) of 16 patients): 3 (19%)
- serious adverse event (SAE), unrelated to study treatment (number): one
- serious adverse reactions (SARs) (number): two
- AEs graded 1 or 2 (number of events): 360
- grade 3 AEs (non-serious) (number of events, in five separate patients): six
- AEs categorised as grade 1 or 2 (of the further 366 AEs): 98%
- AEs deemed as ARs (of the further 366 AEs): 69%
